Results taken from PubChem BioAssay (NCI).
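Step 1: Grow cells in 96-well plates. Step 2: Expose to compound for 48 hours at 5 concentrations. Step 3: Interpolate endpoints linearly; if unreached, use highest concentration. GI50 marks 50% less growth. Definition used: TGI = concentration required for complete inhibition of growth.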

Tests used:
Assay in all cases: inhibition of tumour cell growth, NCI panel, 48 h
[1] = system: COLO 205 colon
[2] = system: A549 NSCLC
[3] = system: UO-31 renal
[4] = system: NCI/ADR-RES ovarian
[5] = system: CAKI-1 renal
[6] = system: U251 CNS
[7] = system: NCI-H522 lung
[8] = system: PC-3 prostate
[9] = system: SW-620 colon
[10] = system: OVCAR-4 ovarian
[11] = system: HOP-62 NSCLC
[12] = system: NCI-H23 lung
[13] = system: EKVX NSCLC
[14] = system: 786-0 renal
[15] = system: ACHN renal
[16] = system: SN12C renal
[17] = system: SK-OV-3 ovarian
[18] = system: UACC-62 melanoma
[19] = system: BT-549 breast
[20] = system: HS 578T breast
[21] = system: NCI-H226 lung
[22] = system: MALME-3M melanoma
[23] = system: DU-145 prostate
[24] = system: OVCAR-5 ovarian
[25] = system: MDA-MB-435
[26] = system: HCT-116 colon
[27] = system: OVCAR-8 ovarian
[28] = system: T-47D breast
[29] = system: IGROV1 ovarian
[30] = system: SK-MEL-5 melanoma
[31] = system: K-562 leukemia
[32] = system: SK-MEL-2 melanoma
[33] = system: HCT-15 colon
[34] = system: TK-10 renal
[35] = system: MDA-MB-231 breast
[36] = system: OVCAR-3 ovarian
[37] = system: SF-268 CNS
[38] = system: SNB-19 CNS
[39] = system: LOX IMVI melanoma
[40] = system: M14 melanoma
[41] = system: SF-539 CNS
[42] = system: SNB-75 CNS
[43] = system: KM12 colon
[44] = system: HCC-2998 colon
[45] = system: MOLT-4 leukemia
[46] = system: SK-MEL-28 melanoma
[47] = system: SF-295 CNS
[48] = system: NCI-H460 lung
[49] = system: A498 renal
[50] = system: MCF7 breast
[51] = system: HT29 colon
[52] = system: UACC-257 melanoma

Cc1cn2c(/C=N/N=C(N)N)c(-c3cc([N+](=O)[O-])c(Cl)cc3Cl)nc2s1
TGI [1]: > 100 µM
TGI [2]: > 100 µM
TGI [3]: 3.74 µM
TGI [4]: > 100 µM

CNC(=O)[C@H](Cc1c[nH]c2ccccc12)NC(=O)[C@@H](CC(=O)NO)CC(C)C
GI50 [1]: > 25 µM
TGI [1]: > 25 µM
GI50 [5]: > 25 µM
TGI [5]: > 25 µM
GI50 [6]: > 25 µM
TGI [6]: > 25 µM
GI50 [7]: > 25 µM
TGI [7]: > 25 µM
GI50 [8]: > 25 µM
TGI [8]: > 25 µM
GI50 [9]: > 25 µM
TGI [9]: > 25 µM
GI50 [10]: > 25 µM
TGI [10]: > 25 µM
GI50 [11]: > 25 µM
TGI [11]: > 25 µM
GI50 [12]: > 25 µM
TGI [12]: > 25 µM
GI50 [13]: > 25 µM
TGI [13]: > 25 µM
GI50 [14]: > 25 µM
TGI [14]: > 25 µM
GI50 [15]: > 25 µM
TGI [15]: > 25 µM
GI50 [2]: > 25 µM
TGI [2]: > 25 µM
GI50 [16]: > 25 µM
TGI [16]: > 25 µM
GI50 [17]: > 25 µM
TGI [17]: > 25 µM
GI50 [18]: > 25 µM
TGI [18]: > 25 µM
GI50 [19]: > 25 µM
TGI [19]: > 25 µM
GI50 [20]: > 25 µM
TGI [20]: > 25 µM
GI50 [21]: > 25 µM
TGI [21]: > 25 µM
GI50 [22]: > 25 µM
TGI [22]: > 25 µM
GI50 [23]: > 25 µM
TGI [23]: > 25 µM
GI50 [24]: > 25 µM
TGI [24]: > 25 µM
GI50 [25]: > 25 µM
TGI [25]: > 25 µM
GI50 [26]: > 25 µM
TGI [26]: > 25 µM
GI50 [27]: > 25 µM
TGI [27]: > 25 µM
GI50 [28]: > 25 µM
TGI [28]: > 25 µM
GI50 [29]: > 25 µM
TGI [29]: > 25 µM
GI50 [30]: > 25 µM
TGI [30]: > 25 µM
GI50 [31]: 21.6 µM
TGI [31]: > 25 µM
GI50 [32]: > 25 µM
TGI [32]: > 25 µM
GI50 [33]: > 25 µM
TGI [33]: > 25 µM
GI50 [34]: > 25 µM
TGI [34]: > 25 µM
GI50 [35]: > 25 µM
TGI [35]: > 25 µM
GI50 [36]: > 25 µM
TGI [36]: > 25 µM
GI50 [37]: > 25 µM
TGI [37]: > 25 µM
GI50 [38]: > 25 µM
TGI [38]: > 25 µM
GI50 [39]: > 25 µM
TGI [39]: > 25 µM
GI50 [40]: > 25 µM
TGI [40]: > 25 µM
GI50 [41]: > 25 µM
TGI [41]: > 25 µM
GI50 [42]: > 25 µM
TGI [42]: > 25 µM
GI50 [3]: > 25 µM
TGI [3]: > 25 µM
GI50 [43]: > 25 µM
TGI [43]: > 25 µM
GI50 [44]: > 25 µM
TGI [44]: > 25 µM
GI50 [45]: > 25 µM
TGI [45]: > 25 µM
GI50 [46]: > 25 µM
TGI [46]: > 25 µM
GI50 [47]: > 25 µM
TGI [47]: > 25 µM
GI50 [4]: > 25 µM
TGI [4]: > 25 µM
GI50 [48]: > 25 µM
TGI [48]: > 25 µM
GI50 [49]: > 25 µM
TGI [49]: > 25 µM
GI50 [50]: > 25 µM
TGI [50]: > 25 µM
GI50 [51]: > 25 µM
TGI [51]: > 25 µM
GI50 [52]: > 25 µM
TGI [52]: > 25 µM

CCc1cn2c(/C=N/N=C(N)N)c(-c3cc(C)c(Cl)cc3Cl)nc2s1
TGI [1]: 3.61 µM
TGI [10]: 2.78 µM
TGI [12]: 3.16 µM
TGI [15]: 3.04 µM
TGI [17]: 3.56 µM
TGI [18]: 2.72 µM
TGI [19]: 3.2 µM
TGI [23]: 3 µM
TGI [24]: 2.96 µM
TGI [25]: 2.76 µM
TGI [30]: 2.99 µM
TGI [33]: 2.97 µM
TGI [34]: 3.46 µM
TGI [35]: 2.12 µM
TGI [41]: 3.11 µM
TGI [42]: 2.88 µM
TGI [46]: 2.82 µM
TGI [4]: 24.8 µM
TGI [49]: 3.75 µM
TGI [51]: 2.45 µM
